Experimental findings from US20100173832A1, “ANTICANCEROUS POLYMERIC AGENTS” (TECHNION RESEARCH & DEVELOPMENT FOUNDATION LTD., priority 2007, published 2010) are described below.

The structures appear in SMILES notation. Non-standard residues stand in square brackets, D forms with d. Residues, ends and D or L forms follow the SMILES beside them. *: point of attachment. Lauroyl = CCCCCCCCCCCC(=O)*; Aoc = NCCCCCCCC(=O)O

This series can be described thus: XTT cell viability assay, non-cancerous cardiac fibroblasts (CF). Format: cell-based, rat. To be noted: primary cardiac fibroblasts (CF); primary non-cancerous rat cardiac fibroblasts, XTT assay; read-out: CF lethal concentration. From the text:
Primary non-cancerous rat cardiac fibroblasts (CF);
As a routine cancer cell killing assay for assessment of antitumor activity, 2,3-bis(2-methoxy-4-nitro-5-sulfophenyl)-2H-tetrazolium-5-carboxanilide inner salt (XTT) reduction assay was used, utilizing a commercial kit such as, for example, Cell Proliferation XTT Kit, Cat. No. 20-300-1000, Biological Industries Ltd., Kibbutz Beit Haemek, Israel. XTT is a tetrazolium salt which is cleaved to formazan colored compounds by the mitochondrial dehydrogenase enzymes indicating proper mitochondrial activity in intact cells.
Thereafter, a series of increasing concentrations of the polymers were added. After another 24 hours of incubation, XTT reaction solution was added (50 μl of XTT per 100 μl of cell culture medium). The optical density of the cells was measured at 450 nm by ELISA plate reader after 2-4 hours XTT incubation. Cell viability was determined relative to a control having no polymer added thereto.
“Rat primary cardiac fibroblast CF” represents the lethal concentration in μM as measured against CF cell line, measured as described hereinabove in the cell proliferation XTT assay (column 8 in Table 3);
On the technique in general: Formazan colour is commonly taken as a measure of viable cells.

With `NCCCCCCCCCCCC(=O)N[C@@H](CCCCN)C(=O)NCCCCCCCCCCCC(=O)N[C@@H](CCCCN)C(N)=O` [(NC12K)2NH2], the CC50 at 24 h is greater than 16 µM.
Consider `NCCCCCCCCCCCC(=O)N[C@@H](CCCCN)C(=O)NCCCCCCCCCCCC(=O)N[C@@H](CCCCN)C(=O)O` [(NC12K)2], for which the CC50 at 24 h was greater than 16 µM.
Regarding `NCCCCCCCCCCCC(=O)N[C@@H](CCCCN)C(=O)NCCCCCCCCCCCC(=O)N[C@@H](CCCCN)C(=O)NCCCCCCCCCCCC(=O)N[C@@H](CCCCN)C(N)=O` [(NC12K)3NH2], the CC50 at 24 h was greater than 16 µM.
As to `NCCCCCCCCCCCC(=O)N[C@@H](CCCCN)C(=O)NCCCCCCCCCCCC(=O)N[C@@H](CCCCN)C(=O)NCCCCCCCCCCCC(=O)N[C@@H](CCCCN)C(=O)O` [(NC12K)3], the CC50 at 24 h was greater than 16 µM.
As for `NCCCCCCCCCCCC(=O)N[C@@H](CCCCN)C(=O)NCCCCCCCCCCCC(=O)N[C@@H](CCCCN)C(=O)NCCCCCCCCCCCC(=O)N[C@@H](CCCCN)C(=O)NCCCCCCCCCCCC(=O)N[C@@H](CCCCN)C(=O)O` [(NC12K)4], the CC50 at 24 h is greater than 16 µM.
In the case of `NCCCCCCCCCCCC(=O)N[C@@H](CCCCN)C(=O)NCCCCCCCCCCCC(=O)N[C@@H](CCCCN)C(=O)NCCCCCCCCCCCC(=O)N[C@@H](CCCCN)C(=O)NCCCCCCCCCCCC(=O)N[C@@H](CCCCN)C(=O)NCCCCCCCCCCCC(=O)N[C@@H](CCCCN)C(N)=O` [(NC12K)5NH2] it was greater than 16 µM.
As for `NCCCCCCCCCCCC(=O)N[C@@H](CCCCN)C(=O)NCCCCCCCCCCCC(=O)N[C@@H](CCCCN)C(=O)NCCCCCCCCCCCC(=O)N[C@@H](CCCCN)C(=O)NCCCCCCCCCCCC(=O)N[C@@H](CCCCN)C(=O)NCCCCCCCCCCCC(=O)N[C@@H](CCCCN)C(=O)NCCCCCCCCCCCC(=O)N[C@@H](CCCCN)C(N)=O` [(NC12K)6NH2], the CC50 at 24 h is greater than 16 µM.
Turning to `NCCCCCCCCCCCC(=O)N[C@@H](CCCCN)C(=O)NCCCCCCCCCCCC(=O)N[C@@H](CCCCN)C(=O)NCCCCCCCCCCCC(=O)N[C@@H](CCCCN)C(=O)NCCCCCCCCCCCC(=O)N[C@@H](CCCCN)C(=O)NCCCCCCCCCCCC(=O)N[C@@H](CCCCN)C(=O)NCCCCCCCCCCCC(=O)N[C@@H](CCCCN)C(=O)NCCCCCCCCCCCC(=O)N[C@@H](CCCCN)C(N)=O` [(NC12K)7NH2], the CC50 at 24 h was greater than 16 µM.
Regarding `NCCCCCCCCCCCC(=O)N[C@@H](CCCCN)C(=O)NCCCCCCCCCCCC(=O)N[C@@H](CCCCN)C(=O)NCCCCCCCCCCCC(=O)N[C@@H](CCCCN)C(=O)NCCCCCCCCCCCC(=O)N[C@@H](CCCCN)C(=O)NCCCCCCCCCCCC(=O)N[C@@H](CCCCN)C(=O)NCCCCCCCCCCCC(=O)N[C@@H](CCCCN)C(=O)NCCCCCCCCCCCC(=O)N[C@@H](CCCCN)C(=O)NCCCCCCCCCCCC(=O)N[C@@H](CCCCN)C(N)=O` [(NC12K)8NH2], the CC50 at 24 h is greater than 16 µM.
With `CCCCCCCCCCCC(=O)N[C@@H](CCCCN)C(=O)NCCCCCCCC(=O)N[C@@H](CCCCN)C(=O)N[C@@H](CCCCN)C(=O)NCCCCCCCC(=O)N[C@@H](CCCCN)C(N)=O` [C12(KNC8K)2NH2] (Lauroyl-K[Aoc]KK[Aoc]K-NH2) the figure was less than 16 µM; with `CCCCCCCCCCCC(=O)N[C@@H](CCCCN)C(=O)NCCCCCCCC(=O)N[C@@H](CCCCN)C(=O)N[C@@H](CCCCN)C(=O)NCCCCCCCC(=O)N[C@@H](CCCCN)C(=O)N[C@@H](CCCCN)C(=O)NCCCCCCCC(=O)N[C@@H](CCCCN)C(N)=O` [C12(KNC8K)3NH2] (Lauroyl-K[Aoc]KK[Aoc]KK[Aoc]K-NH2), less than 16 µM.
Regarding `CCCCCCCCCCCC(=O)N[C@@H](CCCCN)C(=O)NCCCCCCCC(=O)N[C@@H](CCCCN)C(=O)N[C@@H](CCCCN)C(=O)NCCCCCCCC(=O)N[C@@H](CCCCN)C(=O)N[C@@H](CCCCN)C(=O)NCCCCCCCC(=O)N[C@@H](CCCCN)C(=O)N[C@@H](CCCCN)C(=O)NCCCCCCCC(=O)N[C@@H](CCCCN)C(N)=O` [C12(KNC8K)4NH2] (Lauroyl-K[Aoc]KK[Aoc]KK[Aoc]KK[Aoc]K-NH2), the CC50 at 24 h is less than 16 µM.
With `CCCCCCCCCCCC(=O)N[C@@H](CCCCN)C(=O)NCCCCCCCC(=O)N[C@@H](CCCCN)C(N)=O` [C12(KNC8K)NH2] the figure was less than 16 µM.
As to `CCCCCCCCCCCC(=O)N[C@@H](CCCCN)C(=O)NCCCCCCCCCCCC(=O)N[C@@H](CCCCN)C(=O)NCCCCCCCCCCCC(=O)N[C@@H](CCCCN)C(N)=O` [C12K(NC12K)2NH2], the CC50 at 24 h was greater than 16 µM.
Consider `CCCCCCCCCCCC(=O)N[C@@H](CCCCN)C(=O)NCCCCCCCCCCCC(=O)N[C@@H](CCCCN)C(=O)NCCCCCCCCCCCC(=O)N[C@@H](CCCCN)C(=O)O` [C12K(NC12K)2], for which the CC50 at 24 h is greater than 16 µM.
In the case of `CCCCCCCCCCCC(=O)N[C@@H](CCCCN)C(=O)NCCCCCCCCCCCC(=O)N[C@@H](CCCCN)C(=O)NCCCCCCCCCCCC(=O)N[C@@H](CCCCN)C(=O)NCCCCCCCCCCCC(=O)N[C@@H](CCCCN)C(N)=O` [C12K(NC12K)3NH2] it was greater than 16 µM.
Take `CCCCCCCCCCCC(=O)N[C@@H](CCCCN)C(=O)NCCCCCCCCCCCC(=O)N[C@@H](CCCCN)C(=O)NCCCCCCCCCCCC(=O)N[C@@H](CCCCN)C(=O)NCCCCCCCCCCCC(=O)N[C@@H](CCCCN)C(=O)O` [C12K(NC12K)3]: the CC50 at 24 h is greater than 16 µM.
As to `CCCCCCCCCCCC(=O)N[C@@H](CCCCN)C(=O)NCCCCCCCCCCCC(=O)N[C@@H](CCCCN)C(=O)NCCCCCCCCCCCC(=O)N[C@@H](CCCCN)C(=O)NCCCCCCCCCCCC(=O)N[C@@H](CCCCN)C(=O)NCCCCCCCCCCCC(=O)N[C@@H](CCCCN)C(N)=O` [C12K(NC12K)4NH2], the CC50 at 24 h was determined as 37 ± 2.12 µM.
Take `CCCCCCCCCCCC(=O)N[C@@H](CCCCN)C(=O)NCCCCCCCCCCCC(=O)N[C@@H](CCCCN)C(N)=O` [C12KNC12KNH2]: the CC50 at 24 h was greater than 16 µM.
In the case of `CCCCCCCCCCCC(=O)N[C@@H](CCCCN)C(=O)NCCCCCCCCCCCC(=O)N[C@@H](CCCCN)C(=O)O` [C12KNC12K] it was greater than 16 µM.
As for `NCCCC[C@H](NC(=O)CCCCCCCCCCCNC(=O)[C@H](CCCCN)NC(=O)CCCCCCCCCCCNC(=O)[C@@H](N)CCCCN)C(N)=O` [K(NC12K)2NH2], the CC50 at 24 h was greater than 16 µM.
For `NCCCC[C@H](NC(=O)CCCCCCCCCCCNC(=O)[C@H](CCCCN)NC(=O)CCCCCCCCCCCNC(=O)[C@@H](N)CCCCN)C(=O)O` [K(NC12K)2], the CC50 at 24 h is greater than 16 µM.
Regarding `NCCCC[C@H](NC(=O)CCCCCCCCCCCNC(=O)[C@H](CCCCN)NC(=O)CCCCCCCCCCCNC(=O)[C@H](CCCCN)NC(=O)CCCCCCCCCCCNC(=O)[C@@H](N)CCCCN)C(N)=O` [K(NC12K)3NH2], the CC50 at 24 h is greater than 16 µM.
On to `NCCCC[C@H](NC(=O)CCCCCCCCCCCNC(=O)[C@H](CCCCN)NC(=O)CCCCCCCCCCCNC(=O)[C@H](CCCCN)NC(=O)CCCCCCCCCCCNC(=O)[C@@H](N)CCCCN)C(=O)O` [K(NC12K)3], for which the CC50 at 24 h is greater than 16 µM.
As to `NCCCC[C@H](NC(=O)CCCCCCCCCCCNC(=O)[C@H](CCCCN)NC(=O)CCCCCCCCCCCNC(=O)[C@H](CCCCN)NC(=O)CCCCCCCCCCCNC(=O)[C@H](CCCCN)NC(=O)CCCCCCCCCCCNC(=O)[C@@H](N)CCCCN)C(N)=O` [K(NC12K)4NH2], the CC50 at 24 h is 50 µM.
On to `NCCCC[C@H](NC(=O)CCCCCCCCCCCNC(=O)[C@H](CCCCN)NC(=O)CCCCCCCCCCCNC(=O)[C@H](CCCCN)NC(=O)CCCCCCCCCCCNC(=O)[C@H](CCCCN)NC(=O)CCCCCCCCCCCNC(=O)[C@H](CCCCN)NC(=O)CCCCCCCCCCCNC(=O)[C@@H](N)CCCCN)C(N)=O` [K(NC12K)5NH2], for which the CC50 at 24 h was greater than 16 µM.
